Reference: US8492391B2, “Substituted 6-(2-hydroxybenzylamino)purine derivatives, their use as medicaments and compositions containing these derivatives” (Univerzita Palackeho V Olomouci, priority 2009, dated 2013)
Read-outs that look alike come from different tables or passages of the source.

Experiments:
[1] = system: p53; test: p53-dependent transcription, β-galactosidase reporter in Arn8 cells; assay type: cell-based, human; parameters: key to p53 (effect): induction of p53 protein: ++: very strong; +: weak; −: no effect; conditions: for p53 (effect): induction of p53 protein: Arn8 cells stable transfected with a β-galactosidase reporter gene; for p53 (peak concentration in μM): Arn8 cells, concentration inducing maximum of β-galactosidase activity
Source text: Protein p53, accumulated in nuclei upon treatment by the compounds, then leads to trans-activation of natural cell cycle inhibitor p21^WAF1, further blocking the cell cycle. […] This allows qualitative as well as quantitative measurement of CDK inhibitors-induced p53 transcriptional activity via β-galactosidase assay. Then, the effect will be verified in treated cells by immunoblotting of proteins expressed under the control of p53. β-galactosidase activity of human melanoma cell line Arn8 was determined as described. […] Alternatively, β-galactosidase activity was quantified by measuring fluorescence of methylumbelliferyl-β-D-galactopyranoside cleavage product. Cell lines established from the human breast carcinoma (MCF-7) and the human melanoma (Arn8) cell lines were cultured in Dubecco's Modified Eagle Medium (DMEM) supplemented with 10% foetal bovine serum.
Effects of prepared compounds on activation of p53 protein were analysed in human melanoma cell line Arn8. […] The total β-galactosidase activity in Arn8 cells was quantified using a fluorimetric assay.

[2] = system: β-adrenergic receptors; test: Modulation of the activity of β-adrenergic receptors (isoproterenol-induced cAMP synthesis in C6 glioma); assay type: cell-based; conditions: rat C6 glioma, cAMP synthesis induced by 5 μM (−) isoproterenol, 30 min; for EFFECT (modulation of the activity of β-adrenergic receptors) / EFFECT: fold activation (modulation of the activity of β-adrenergic receptors): simultaneous addition
Method: Mechanism of action of novel compounds is presented on FIG. 2. […] Incubation was at 37° C. in a humidified atmosphere. Assays were performed in the logaritmic growth phase at a density of 2.5×10^5 cells/cm^2. Intracellular cAMP synthesis was induced by addition of 5 μM (−) isoproterenol. After 30 min incubation at 37° C. the medium was removed and the cellular amount of cAMP determined using the cAMP-enzyme immunoassay kit of Amersham. The I50 is determined from a dose-response curve in duplicate. The effect of several novel substituted 6-(2-hydroxybenzylamino)purine derivatives was measured after simultaneous addition with isoproterenol.
As P2Y1-like and A2 purinergic receptors, negatively and positively coupled to adenylate cyclase respectively, are present on rat C6 glioma. It has to be determined if the modulation of the synthesis of cAMP is due to inhibition of the activation of β-adrenergic receptors by isoproterenol are due to activation of purinergic receptors.

[3] = biological target: T1, CDK2/cyclin E (Homo sapiens, UniProt P24941); test: CDK2/cyclin E kinase inhibition assay; assay type: biochemical; conditions: kinase inhibitory activity, 15 μM ATP, histone substrate
T1 construct: made in house; host or cells: Sf9 insect cells, baculovirus co-infection
Method: (§1) Selected compounds were tested for CDK1/cyclin B, CDK2/cyclin E, CDK5/p25, CDK7/cyclin H and CDK9/cyclin T inhibitory activity to determine the basic relationships between their structure and the inhibitory activity. Cdk/cyclin complexes were expressed in Sf9 cells co-infected with appropriate baculoviral construct. The cells were harvested 70 hours post infection in lysis buffer (50 mM Tris pH 7.4, 150 mM NaCl, 5 mM EDTA, 20 mM NaF, 1% Tween 20, protease inhibitors) for 30 min on ice and the soluble fraction was recovered by centrifugation at 14.000 g for […]. The protein extract was stored at −80° C. until use. The final point test system for kinase activity measurement was used to carry out experiments on the kinetics under linear conditions. […] ATP and tested compound in a final volume of 20 μl, all in reaction buffer: 50 mM Hepes pH 7.4, 10 mM MgCl2, 5 mM EGTA, 10 mM 2-glycerolphosphate, 1 mM NaF, 1 mM DTT and protease inhibitors. After 30 min, the incubations were stopped by adding 5% H3PO4 and then the proteins were separated by phosphocellulose binding. The measurement of kinase inhibition employed the digital imaging analyzer BAS 1800. The kinase activity was expressed as a percentage of maximum activity and the IC50 value was determined by graphic analysis. The kinase activity is expressed as a percentage of maximum activity (FIG. 1).

[4] = biological target: T2, CDK9/cyclin T (Homo sapiens, UniProt P50750); test: CDK9/cyclin T kinase inhibition assay; assay type: biochemical; conditions: kinase inhibitory activity, 15 μM ATP, (YSPTSPS)3 peptide substrate
T2 construct: made in house; host or cells: Sf9 insect cells, baculovirus co-infection
Method: as §1

[5] = system: MCF7 (human breast adenocarcinoma); test: Calcein AM cytotoxicity assay, MCF7; assay type: cell-based; conditions: MCF7, read-out: Cytotoxic activity IC50 (μM) MCF7
Source text: (§2) Cytotoxicity of the compounds is the major property determining their anticancer effect in vivo. One of the parameters used, as the basis for cytotoxicity assays, is the metabolic activity of viable cells. For example, a microtiter assay, which uses the Calcein AM, is now widely used to quantitate cell proliferation and cytotoxicity. For instance, this assay is used in drug screening programs and in chemosensitivity testing. Because only metabolically active cells cleave Calcein AM, these assays detect viable cells exclusively. The quantity of cleaved Calcein AM corresponds to the number of vital cells in the culture. We have been using the following cell lines: MCF7 (human breast adenocarcinoma), K562 (human chronic myelogenous leukaemia), HOS (human osteogenic sarcoma), HeLa (human cervical carcinoma), HL 60 (human promyelocytic leukaemia), G 361 (human malignant melanoma), CEM (human lymphoblastoid leukaemia). All cell lines were grown in DMEM medium (Gibco BRL) supplemented with 10% (v/v) fetal bovine serum and L-glutamine and maintained at 37° C. in a humidified atmosphere with 5% CO2. For cytotoxicity assays, 10^4 cells were seeded into each well of 96 well plate, allowed to stabilize for at least 2 h and then tested compounds were added at various concentrations ranging from 100 to 0.1 μM in triplicates. Three days after drug addition Calcein AM solution (Molecular Probes) was added and let to enter the cells for 1 hour. Fluorescence of viable cells was quantified using Fluoroskan Ascent (Microsystems).

[6] = system: K562 (human chronic myelogenous leukaemia); test: Calcein AM cytotoxicity assay, K562; assay type: cell-based; conditions: read-out: Cytotoxic activity IC50 (μM) K562
Source text: as §2

[7] = system: HOS (human osteogenic sarcoma); test: Calcein AM cytotoxicity assay, HOS; assay type: cell-based; conditions: read-out: Cytotoxic activity IC50 (μM) HOS
Source text: as §2

T2 sequence (P50750 whole entry, species assumed): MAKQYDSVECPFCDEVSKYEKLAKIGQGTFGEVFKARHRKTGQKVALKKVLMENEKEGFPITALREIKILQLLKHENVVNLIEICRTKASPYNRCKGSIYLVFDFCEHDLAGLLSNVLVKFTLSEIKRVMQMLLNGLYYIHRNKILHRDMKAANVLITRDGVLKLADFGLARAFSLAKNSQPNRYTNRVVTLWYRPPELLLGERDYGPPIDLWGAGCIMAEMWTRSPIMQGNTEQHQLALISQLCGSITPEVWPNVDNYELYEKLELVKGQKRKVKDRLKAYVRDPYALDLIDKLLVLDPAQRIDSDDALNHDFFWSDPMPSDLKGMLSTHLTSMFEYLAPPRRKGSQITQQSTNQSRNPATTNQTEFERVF
T2 sequence (O60563 whole entry partner, species assumed): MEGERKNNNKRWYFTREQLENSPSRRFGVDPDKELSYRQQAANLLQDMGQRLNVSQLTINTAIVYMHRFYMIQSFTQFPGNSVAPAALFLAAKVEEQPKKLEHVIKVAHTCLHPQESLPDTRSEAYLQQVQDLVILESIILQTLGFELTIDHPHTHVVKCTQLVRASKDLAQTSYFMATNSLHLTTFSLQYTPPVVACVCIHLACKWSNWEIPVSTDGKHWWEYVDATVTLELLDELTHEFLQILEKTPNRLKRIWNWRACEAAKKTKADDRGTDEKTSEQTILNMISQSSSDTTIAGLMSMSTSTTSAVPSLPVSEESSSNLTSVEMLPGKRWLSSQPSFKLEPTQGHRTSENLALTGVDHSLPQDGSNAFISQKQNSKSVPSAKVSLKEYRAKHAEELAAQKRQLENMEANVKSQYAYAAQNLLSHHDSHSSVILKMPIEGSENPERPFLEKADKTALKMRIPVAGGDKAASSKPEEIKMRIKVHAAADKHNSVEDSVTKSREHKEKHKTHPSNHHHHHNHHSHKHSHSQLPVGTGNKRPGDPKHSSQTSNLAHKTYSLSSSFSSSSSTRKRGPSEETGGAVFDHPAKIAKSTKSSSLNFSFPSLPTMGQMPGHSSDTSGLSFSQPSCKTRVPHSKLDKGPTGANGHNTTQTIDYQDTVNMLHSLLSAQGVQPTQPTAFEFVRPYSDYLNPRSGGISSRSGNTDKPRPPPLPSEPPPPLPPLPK

IC50 [2] [µM]	EFFECT (modulation of the activity of β-adrenergic receptors) [2]	IC50 [3] [µM]	IC50 [4] [µM]	IC50 (μM) (modulation of the activity of β-adrenergic receptors) [2]	Structure (SMILES)	p53 (effect): induction of p53 protein [1]	p53 (peak concentration in μM) [1] [µM]	EFFECT: fold activation (modulation of the activity of β-adrenergic receptors) [2]	IC50 ([5]; Homo sapiens) [µM]	IC50 ([6]; Homo sapiens) [µM]	IC50 ([7]; Homo sapiens) [µM]	IC50 [5] [µM]	IC50 [6] [µM]	IC50 [7] [µM]
		0.07	0.04		CCC(CO)Nc1nc(NCc2cc(Cl)ccc2O)c2ncn(C(C)C)c2n1 (stereo not drawn) [Compound 79]	++	8.0	1.5-fold activation	3.5	11.9	5.3			
		0.06	0.05		CC(C)C(CO)Nc1nc(NCc2cc(Cl)ccc2O)c2ncn(C(C)C)c2n1 (stereo not drawn) [Compound 80]			1.8-fold activation						
8 ± 2	inhibition	0.04	0.02		CC(C)n1cnc2c(NCc3cc(F)ccc3O)nc(NC3CCCCC3N)nc21 (stereo not drawn) [Compound 86]				1.8	7.6	3.2			
		0.05	0.02		CCC(CO)Nc1nc(NCc2cc(F)ccc2O)c2ncn(C(C)C)c2n1 (stereo not drawn) [Compound 89]	++	6.0	1.9-fold activation	3.2	14.7	5.3			
		0.02			CCC(CO)Nc1nc(NCc2cc(C)ccc2O)c2ncn(C(C)C)c2n1 (stereo not drawn) [Compound 107]	++	6.0		6.6	24.9	18			
		0.08	0.05		CCC(CO)Nc1nc(NCc2ccc(O)cc2O)c2ncn(C(C)C)c2n1 (stereo not drawn) [Compound 119]	+	12.0	1.6-fold activation	4.3	13	8.1			

Continued, compound first:

Structure (SMILES)	IC50 [2] [µM]	EFFECT (modulation of the activity of β-adrenergic receptors) [2]	IC50 [3] [µM]	IC50 [4] [µM]	IC50 (μM) (modulation of the activity of β-adrenergic receptors) [2]	p53 (effect): induction of p53 protein [1]	p53 (peak concentration in μM) [1] [µM]	EFFECT: fold activation (modulation of the activity of β-adrenergic receptors) [2]	IC50 ([5]; Homo sapiens) [µM]	IC50 ([6]; Homo sapiens) [µM]	IC50 ([7]; Homo sapiens) [µM]	IC50 [5] [µM]	IC50 [6] [µM]	IC50 [7] [µM]
COc1cccc(CNc2nc(NC3CCC(N)CC3)nc3c2ncn3C(C)C)c1O (mixture of isomers) [Compound 126, (E/Z)—N^2-(4-aminocyclohexyl)-N^6-(2-hydroxy-3-methoxybenzyl)-9-isopropyl-9H-purin-2,6-diamine]	4 ± 1	inhibition				++	11.0							
CC(C)n1cnc2c(NCc3cc(Cl)ccc3O)nc(NCC(C)(C)O)nc21 [Compound 81]			0.03	0.02				1.7-fold activation						
Cc1cccc(CNc2nc(NC3CCCCC3N)nc3c2ncn3C(C)C)c1O (stereo not drawn) [Compound 105]	12 ± 4	inhibition												
Cc1ccc(O)c(CNc2nc(NC3CCC(N)CC3)nc3c2ncn3C(C)C)c1 (stereo not drawn) [Compound 106]	7 ± 2	inhibition												
CCC(CO)Nc1nc(NCc2cc(O)cc(O)c2)c2ncn(C(C)C)c2n1 (stereo not drawn) [Compound 123]						+	11.0	1.7-fold activation				3.2	5.3	3.7
CC(C)C(CO)Nc1nc(NCc2cc(O)ccc2O)c2ncn(C(C)C)c2n1 (stereo not drawn) [Compound 124]								2.1-fold activation						
COc1cccc(CNc2nc(NC3CCCCC3N)nc3c2ncn3C(C)C)c1O (stereo not drawn) [Compound 125]	2	inhibition	0.02			++	10.0		3.2	10.9				
Cn1cnc2c(NCc3ccccc3)nc(NCCO)nc21 [OC]		inactive			inactive							133	163	
